Test results: ChEMBL document CHEMBL1138862 (J Med Chem, 2006)
In brackets after ≈: the same amount, converted by molar mass.

Tests used:
[1] = system: Escherichia coli; assay: Antibacterial activity against Escherichia coli pTMV19 in presence of mevalonate; format: functional
[2] = system: Escherichia coli; assay: Antibacterial activity against Escherichia coli pTMV19; format: functional
[3] = system: Escherichia coli; assay: Antibacterial activity against Escherichia coli W3110; format: functional
[4] = system: Escherichia coli; assay: Ratio, MIC/MBC for Escherichia coli K12; format: functional
[5] = system: Escherichia coli; assay: Antibacterial activity against Escherichia coli K12; format: functional
[6] = molecular target: T1, Farnesyl diphosphate synthase (Escherichia coli K-12, UniProt P22939); assay: Inhibition of Escherichia coli FPPS
T1 sequence (P22939 whole entry): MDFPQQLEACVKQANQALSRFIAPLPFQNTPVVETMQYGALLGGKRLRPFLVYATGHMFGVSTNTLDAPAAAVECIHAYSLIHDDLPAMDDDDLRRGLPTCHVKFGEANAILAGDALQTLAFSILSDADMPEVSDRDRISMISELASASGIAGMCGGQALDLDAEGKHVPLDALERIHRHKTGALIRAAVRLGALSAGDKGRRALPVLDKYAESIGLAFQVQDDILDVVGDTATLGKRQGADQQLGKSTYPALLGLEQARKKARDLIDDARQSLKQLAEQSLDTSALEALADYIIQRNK

[7] = Inhibition of Trypanosoma brucei FPPS expressed in Escherichia coli
[8] = system: Escherichia coli; assay: Antibacterial activity against Escherichia coli K12 by broth microdilution method; format: functional, organism-based

SMILES	inhibition zone (IZ) [1]	inhibition zone (IZ) [2]	inhibition zone (IZ) [3]	Ratio [4]	MBC [5]	MIC [5]	IC50 [6]	IC50 [7]	IC50 [8]
CN(C)[C@@H]1C(O)=C(C(N)=O)C(=O)[C@@]2(O)C(O)=C3C(=O)c4c(O)cccc4[C@@](C)(O)[C@H]3C[C@@H]12 [TETRACYCLINE]	22 mm	21 mm	21 mm						
O=P(O)(O)C(O)(Cc1cccc(Br)c1)P(=O)(O)O	0 mm	14 mm	12 mm						
Cc1cccc(NC(P(=O)(O)O)P(=O)(O)O)n1	8 mm	10 mm	7 mm						
CCCCCCC(CCCC)C(O)(P(=O)(O)O)P(=O)(O)O (centres undefined)	0 mm	0 mm	0 mm						
CC(C)c1cccc(NC(P(=O)(O)O)P(=O)(O)O)c1	0 mm	9 mm	8 mm						
O=P(O)(O)CC(c1ccccn1)P(=O)(O)O (centres undefined)	0 mm	0 mm	0 mm						
O=P(O)(O)C(Nc1ccc(-c2ccccc2)cc1)P(=O)(O)O	7 mm	8 mm	9 mm						
O=C(O)c1cn(C2CC2)c2cc(N3CCNCC3)c(F)cc2c1=O [CIPROFLOXACIN]				0.5	0.076 µM (≈ 0.0252 µg/mL)	0.038 µM (≈ 0.0126 µg/mL)			
O=P(O)(O)C(Nc1ccc(Br)cn1)P(=O)(O)O	8 mm	11 mm	12 mm						
O=P(O)(O)C(O)(Cc1cnc2ccccn12)P(=O)(O)O [MINODRONIC ACID]	0 mm	0 mm	10 mm				1100 nM		
CCCCCCCCCCC(O)(P(=O)(O)O)P(=O)(O)O	0 mm	0 mm	0 mm						
Cc1ncccc1NC(P(=O)(O)O)P(=O)(O)O	12 mm	8 mm	7 mm						
O=P(O)(O)C(Sc1ccccn1)P(=O)(O)O	0 mm	0 mm	0 mm						
CC(NC(P(=O)(O)O)P(=O)(O)O)c1cccc2ccccc12 (centres undefined)	0 mm	0 mm	0 mm						
Cc1cccc(CC(O)(P(=O)(O)O)P(=O)(O)O)c1	0 mm	0 mm	0 mm						
NC[C@@H]1O[C@H](O[C@H]2[C@@H](O)[C@H](O[C@@H]3[C@@H](O)[C@H](N)C[C@H](N)[C@H]3O[C@H]3O[C@H](CN)[C@@H](O)[C@H](O)[C@H]3N)O[C@@H]2CO)[C@H](N)[C@@H](O)[C@@H]1O [FRAMYCETIN]	12 mm	18 mm	15 mm						
Cc1cc(C)nc(NC(P(=O)(O)O)P(=O)(O)O)c1	0 mm	7 mm	11 mm						
O=P(O)(O)C(O)(Cn1cnc2ccccc21)P(=O)(O)O	13 mm	0 mm	14 mm				700 nM		

SMILES	inhibition zone (IZ) [1]	inhibition zone (IZ) [2]	inhibition zone (IZ) [3]	Ratio [4]	MBC [5]	MIC [5]	IC50 [6]	IC50 [7]	IC50 [8]
CN(CCOc1ccccc1)CCC(O)(P(=O)(O)O)P(=O)(O)O	11 mm	15 mm	11 mm						
CO[C@@H]1[C@@H](OC(N)=O)[C@@H](O)[C@H](Oc2ccc3c(O)c(NC(=O)c4ccc(O)c(CC=C(C)C)c4)c(=O)oc3c2C)OC1(C)C [NOVOBIOCIN]	15 mm	9 mm	9 mm						
O=P(O)(O)C(Nc1cccc(Cc2ccccc2)c1)P(=O)(O)O	0 mm	8 mm	7 mm						
Cc1cc(Br)cnc1NC(P(=O)(O)O)P(=O)(O)O	0 mm	0 mm	0 mm						
O=P(O)(O)C(N1CCCCCC1)P(=O)(O)O [N-(HEXAMETHYLENEIMINO)METHYLENEBISPHOSPHONIC ACID]	0 mm	0 mm	0 mm						
CCCCCCCCC(O)(P(=O)(O)O)P(=O)(O)O	0 mm	7 mm	9 mm						
CC1(C)S[C@@H]2[C@H](NC(=O)C(C(=O)O)c3ccccc3)C(=O)N2[C@H]1C(=O)O (some centres undefined) [CARBENICILLIN]				1	20 µM (≈ 7.57 µg/mL)	20 µM (≈ 7.57 µg/mL)			
O=P(O)(O)C(O)(Cc1c[nH]cn1)P(=O)(O)O	0 mm	0 mm	0 mm						
CCCCCCCc1ccc(NC(P(=O)(O)O)P(=O)(O)O)cc1	0 mm	0 mm	0 mm						
O=CN(O)CCCP(=O)(O)O [FOSMIDOMYCIN]	0 mm	19 mm	20 mm		2500 µM (≈ 458 µg/mL)	312 µM (≈ 57.1 µg/mL)		200 nM	220 nM
O=P(O)(O)C(Nc1ccc(Cl)cn1)P(=O)(O)O	12 mm	9 mm	13 mm						
CCn1c2ccccc2c2cc(NC(P(=O)(O)O)P(=O)(O)O)ccc21	0 mm	0 mm	0 mm						
O=P(O)(O)C(Nc1cc(Cl)cc(Cl)c1)P(=O)(O)O [(3,5-DICHLOROPHENYLAMINO)METHYLENEDIPHOSPHONIC ACID]	8 mm	10 mm	0 mm						
Cc1ccc(C)c(COc2ccc(C)nc2NC(P(=O)(O)O)P(=O)(O)O)c1	0 mm	0 mm	0 mm						
NC[C@H]1O[C@H](O[C@H]2[C@H](O)[C@@H](O[C@H]3O[C@H](CO)[C@@H](O)[C@H](N)[C@H]3O)[C@H](N)C[C@@H]2N)[C@H](O)[C@@H](O)[C@@H]1O [KANAMYCIN]	17 mm	22 mm	21 mm						
CN[C@@H]1[C@H](O[C@H]2[C@H](O[C@H]3[C@H](O)[C@@H](O)[C@H](N=C(N)N)[C@@H](O)[C@@H]3N=C(N)N)O[C@@H](C)[C@]2(O)C=O)O[C@@H](CO)[C@H](O)[C@H]1O [STREPTOMYCIN]	7 mm	16 mm	15 mm						
Cc1ccnc(N(Cc2ccccc2)C(P(=O)(O)O)P(=O)(O)O)c1	0 mm	0 mm	0 mm						
O=C(N[C@H](CO)[C@H](O)c1ccc([N+](=O)[O-])cc1)C(Cl)Cl [CHLORAMPHENICOL]	19 mm	20 mm	24 mm						
